For 31 molecules, IC50 results are on record in US20250179061A1 (SIRONAX LTD., priority 2022, published 2025).

The assay relates to HT-29 cells. Nature of the assay: HT-29 necroptosis cell viability assay (TNF-α/SMAC mimetic/zVAD-FMK, CellTiter-Glo). The conditions noted are these: Homo sapiens, HT-29, HT-29 necroptosis cell viability assay; class symbols for IC50; read-out: Activity. The format is cell-based. Summed up:
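HT-29 cells (~5,000/well, overnight) in FBS-free McCoy's 5A with TNF-α 10 ng/ml, SMAC mimetic 6 μM and zVAD-FMK 10 μM plus 10-point 1:3 compound titration, 20 h at 37°C. ATP measured by CellTiter-Glo luminescence; IC50 as geometric mean of duplicates.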
In general terms: In ATP-based viability assays light output follows the ATP content of the culture.

Each structure is given as a SMILES string.

As to `Cc1cc(Oc2ccc(-n3ncn(Cc4c(F)cccc4F)c3=O)cc2F)n(C)n1` [Example 172, 4-(2,6-difluorobenzyl)-2-(4-((1,3-dimethyl-1H-pyrazol-5-yl)oxy)-3-fluorophenyl)-2,4-dihydro-3H-1,2,4-triazol-3-one], the IC50 was less than 100 nM.
`COC(=O)c1cnc(Oc2ccc(-n3ncn(Cc4c(F)cccc4F)c3=O)cc2F)n1C` [Example 173, methyl 2-(4-(4-(2,6-difluorobenzyl)-5-oxo-4,5-dihydro-1H-1,2,4-triazol-1-yl)-2-fluorophenoxy)-1-methyl-1H-imidazole-5-carboxylate]: the IC50 lay within 100 to 1000 nM.
As for `CC(=O)c1nc(C)c(Oc2ccc(-n3ncn(Cc4c(F)cccc4F)c3=O)cc2F)n1C` [Example 174, 2-(4-((2-acetyl-1,4-dimethyl-1H-imidazol-5-yl)oxy)-3-fluorophenyl)-4-(2,6-difluorobenzyl)-2,4-dihydro-3H-1,2,4-triazol-3-one], the IC50 is less than 100 nM.
The value for `Cc1cnn(C)c1Oc1ccc(-n2nc3n(c2=O)C(c2ccccc2)CC3)cc1F` (stereo not shown) [Example 175, 2-(4-((1,4-dimethyl-1H-pyrazol-5-yl)oxy)-3-fluorophenyl)-5-phenyl-2,5,6,7-tetrahydro-3H-pyrrolo[2,1-c][1,2,4]triazol-3-one] was less than 100 nM.
For `Cc1cnn(C)c1Oc1ccc(-n2ncn(Cc3c(F)cccc3F)c2=O)cc1` [Example 176, 4-(2,6-difluorobenzyl)-2-(4-((1,4-dimethyl-1H-pyrazol-5-yl)oxy)phenyl)-2,4-dihydro-3H-1,2,4-triazol-3-one], the IC50 was less than 100 nM.
For `Cc1nn(C2COC2)c(C)c1Oc1ccc(-n2ncn(Cc3c(F)cccc3F)c2=O)cc1F` [Example 177, 4-(2,6-difluorobenzyl)-2-(4-((3,5-dimethyl-1-(oxetan-3-yl)-1H-pyrazol-4-yl)oxy)-3-fluorophenyl)-2,4-dihydro-3H-1,2,4-triazol-3-one], the IC50 is less than 100 nM.
The value for `Cc1n[nH]c(C)c1Oc1ccc(-n2ncn(Cc3c(F)cccc3F)c2=O)cc1F` [Example 178, 4-(2,6-difluorobenzyl)-2-(4-((3,5-dimethyl-1H-pyrazol-4-yl)oxy)-3-fluorophenyl)-2,4-dihydro-3H-1,2,4-triazol-3-one] was less than 100 nM; that for `Cc1nn(CC2COC2)c(C)c1Oc1ccc(-n2ncn(Cc3c(F)cccc3F)c2=O)cc1F` [Example 179, 4-(2,6-difluorobenzyl)-2-(4-((3,5-dimethyl-1-(oxetan-3-ylmethyl)-1H-pyrazol-4-yl)oxy)-3-fluorophenyl)-2,4-dihydro-3H-1,2,4-triazol-3-one] was less than 100 nM; that for `Cc1nn(CCO)c(C)c1Oc1ccc(-n2ncn(Cc3c(F)cccc3F)c2=O)cc1F` [Example 180, 4-(2,6-difluorobenzyl)-2-(3-fluoro-4-((1-(2-hydroxyethyl)-3,5-dimethyl-1H-pyrazol-4-yl)oxy)phenyl)-2,4-dihydro-3H-1,2,4-triazol-3-one] was less than 100 nM.
With `CCOC(=O)c1nc(Oc2ccc(-n3ncn(Cc4c(F)cccc4F)c3=O)cc2F)n(C)c1C` [Example 181, ethyl 2-(4-(4-(2,6-difluorobenzyl)-5-oxo-4,5-dihydro-1H-1,2,4-triazol-1-yl)-2-fluorophenoxy)-1,5-dimethyl-1H-imidazole-4-carboxylate], the IC50 lay within 100 to 1000 nM.
For `CCOC(=O)c1c(C)nc(Oc2ccc(-n3ncn(Cc4c(F)cccc4F)c3=O)cc2F)n1C` [Example 182, ethyl 2-(4-(4-(2,6-difluorobenzyl)-5-oxo-4,5-dihydro-1H-1,2,4-triazol-1-yl)-2-fluorophenoxy)-1,4-dimethyl-1H-imidazole-5-carboxylate] the value was 100 to 1000 nM; for `CCOC1CN(c2nc(C)c(Oc3ccc(-n4ncn(Cc5c(F)cccc5F)c4=O)cc3)n2C)C1` [Example 183, 4-(2,6-difluorobenzyl)-2-(4-((2-(3-ethoxyazetidin-1-yl)-1,4-dimethyl-1H-imidazol-5-yl)oxy)phenyl)-2,4-dihydro-3H-1,2,4-triazol-3-one], less than 100 nM.
The value for `Cc1nn(Cc2ccc(-n3ncn(Cc4c(F)cccc4F)c3=O)cc2)cc1Br` [Example 184, 2-(4-((4-bromo-3-methyl-1H-pyrazol-1-yl)methyl)phenyl)-4-(2,6-difluorobenzyl)-2,4-dihydro-3H-1,2,4-triazol-3-one] was less than 100 nM; that for `Cc1ncc(C#N)n1Cc1ccc(-n2ncn(Cc3c(F)cccc3F)c2=O)cc1` [Example 185, 1-(4-(4-(2,6-difluorobenzyl)-5-oxo-4,5-dihydro-1H-1,2,4-triazol-1-yl)benzyl)-2-methyl-1H-imidazole-5-carbonitrile] was 100 to 1000 nM; that for `Cc1nc(C#N)cn1Cc1ccc(-n2ncn(Cc3c(F)cccc3F)c2=O)cc1` [Example 186, 1-(4-(4-(2,6-difluorobenzyl)-5-oxo-4,5-dihydro-1H-1,2,4-triazol-1-yl)benzyl)-2-methyl-1H-imidazole-4-carbonitrile] was less than 100 nM.
The value for `Cc1nccn1Cc1ccc(-n2ncn(Cc3c(F)cccc3F)c2=O)cc1` [Example 187, 4-(2,6-difluorobenzyl)-2-(4-((2-methyl-1H-imidazol-1-yl)methyl)phenyl)-2,4-dihydro-3H-1,2,4-triazol-3-one] was 100 to 1000 nM.
On to `Cc1cc(C)n(Cc2ccc(-n3ncn(Cc4c(F)cccc4F)c3=O)cc2)c1` [Example 188, 4-(2,6-difluorobenzyl)-2-(4-((2,4-dimethyl-1H-pyrrol-1-yl)methyl)phenyl)-2,4-dihydro-3H-1,2,4-triazol-3-one], for which the IC50 was 100 to 1000 nM.
In the case of `Cc1nn(Cc2ccc(-n3ncn(Cc4c(F)cccc4F)c3=O)cc2)c(C)c1C` [Example 189, 4-(2,6-difluorobenzyl)-2-(4-((3,4,5-trimethyl-1H-pyrazol-1-yl)methyl)phenyl)-2,4-dihydro-3H-1,2,4-triazol-3-one], the IC50 was less than 100 nM.
For `Cc1nn(Cc2ccc(-n3ncn(Cc4c(F)cccc4F)c3=O)cc2)cc1C#N` [Example 190, 1-(4-(4-(2,6-difluorobenzyl)-5-oxo-4,5-dihydro-1H-1,2,4-triazol-1-yl)benzyl)-3-methyl-1H-pyrazole-4-carbonitrile], the IC50 is less than 100 nM.
For the molecule `Cc1c(C#N)cnn1Cc1ccc(-n2ncn(Cc3c(F)cccc3F)c2=O)cc1` [Example 191, 1-(4-(4-(2,6-difluorobenzyl)-5-oxo-4,5-dihydro-1H-1,2,4-triazol-1-yl)benzyl)-5-methyl-1H-pyrazole-4-carbonitrile], the IC50 was less than 100 nM.
Turning to `Cc1ccn(Cc2ccc(-n3ncn(Cc4c(F)cccc4F)c3=O)cc2)n1` [Example 192, 4-(2,6-difluorobenzyl)-2-(4-((3-methyl-1H-pyrazol-1-yl)methyl)phenyl)-2,4-dihydro-3H-1,2,4-triazol-3-one], the IC50 was less than 100 nM.
For `Cc1nn(Cc2ccc(-n3ncn(Cc4c(F)cccc4F)c3=O)cc2)c(C)c1N` [Example 193, 2-(4-((4-amino-3,5-dimethyl-1H-pyrazol-1-yl)methyl)phenyl)-4-(2,6-difluorobenzyl)-2,4-dihydro-3H-1,2,4-triazol-3-one] the value was 1000 to 10000 nM; for `N#Cc1cccn(Cc2ccc(-n3ncn(Cc4c(F)cccc4F)c3=O)cc2)c1=O` [Example 194, 1-(4-(4-(2,6-difluorobenzyl)-5-oxo-4,5-dihydro-1H-1,2,4-triazol-1-yl)benzyl)-2-oxo-1,2-dihydropyridine-3-carbonitrile], 1000 to 10000 nM; for `N#Cc1ccc(=O)n(Cc2ccc(-n3ncn(Cc4c(F)cccc4F)c3=O)cc2)c1` [Example 195, 1-(4-(4-(2,6-difluorobenzyl)-5-oxo-4,5-dihydro-1H-1,2,4-triazol-1-yl)benzyl)-6-oxo-1,6-dihydropyridine-3-carbonitrile], 100 to 1000 nM.
For the molecule `CCOC(=O)c1ncn(Cc2ccc(-n3ncn(Cc4c(F)cccc4F)c3=O)cc2F)c1C` [Example 196, ethyl 1-(4-(4-(2,6-difluorobenzyl)-5-oxo-4,5-dihydro-1H-1,2,4-triazol-1-yl)-2-fluorobenzyl)-5-methyl-1H-imidazole-4-carboxylate], the IC50 was less than 100 nM.
As to `CCOC(=O)c1cc(C)nn1Cc1ccc(-n2ncn(Cc3c(F)cccc3F)c2=O)cc1F` [Example 197, ethyl 1-(4-(4-(2,6-difluorobenzyl)-5-oxo-4,5-dihydro-1H-1,2,4-triazol-1-yl)-2-fluorobenzyl)-3-methyl-1H-pyrazole-5-carboxylate], the IC50 is less than 100 nM.
Regarding `CCOC(=O)c1cc(C)n(Cc2ccc(-n3ncn(Cc4c(F)cccc4F)c3=O)cc2F)n1` [Example 198, ethyl 1-(4-(4-(2,6-difluorobenzyl)-5-oxo-4,5-dihydro-1H-1,2,4-triazol-1-yl)-2-fluorobenzyl)-5-methyl-1H-pyrazole-3-carboxylate], the IC50 is 100 to 1000 nM.
For `CCOC(=O)c1nc(C)nn1Cc1ccc(-n2ncn(Cc3c(F)cccc3F)c2=O)cc1F` [Example 201] the value was 100 to 1000 nM.
For `CCOC(=O)c1nn(Cc2ccc(-n3ncn(Cc4c(F)cccc4F)c3=O)cc2F)c(C)c1C` [Example 202, ethyl 1-(4-(4-(2,6-difluorobenzyl)-5-oxo-4,5-dihydro-1H-1,2,4-triazol-1-yl)-2-fluorobenzyl)-4,5-dimethyl-1H-pyrazole-3-carboxylate] the value was less than 100 nM; for `CCOC(=O)c1c(C)c(C)nn1Cc1ccc(-n2ncn(Cc3c(F)cccc3F)c2=O)cc1F` [Example 203, ethyl 1-(4-(4-(2,6-difluorobenzyl)-5-oxo-4,5-dihydro-1H-1,2,4-triazol-1-yl)-2-fluorobenzyl)-3,4-dimethyl-1H-pyrazole-5-carboxylate], 100 to 1000 nM; for `CCOC(=O)c1cc(C)n(Cc2ccc(-n3ncn(Cc4c(F)cccc4F)c3=O)cc2F)c1` [Example 204, ethyl 1-(4-(4-(2,6-difluorobenzyl)-5-oxo-4,5-dihydro-1H-1,2,4-triazol-1-yl)-2-fluorobenzyl)-5-methyl-1H-pyrrole-3-carboxylate], less than 100 nM.
